Experimental data: patent US9890133B2 (priority 2011, dated 2018)
Values after ≈ are worked out from the molar mass of the structure shown.

Columns and labels:
[1] = system: Poliovirus 3; assay: microbe, parasite or virus in culture; assay type: cell-based; conditions: Enterovirus C, read-out: Poliovirus3 EC50
[2] = in vitro; conditions: human

SMILES	EC50 [1]	CC50 [2]	CC50 ([2]; Picorana CC50)
CC(C)c1ccc2c(c1)OC1(O)c3cccc(N)c3C(=O)C21NC(=O)c1ccc2nnnn2c1 (stereo not shown) [Example 278, N-(1-Amino-4b-hydroxy-7-isopropyl-10-oxo-9b,10-dihydro-4bH-indeno[1,2-b]benzofuran-9b-yl)tetrazolo[1,5-a]pyridine-6-carboxamide]	< 0.01 µg/mL	> 10 µg/mL	
CC(C)c1ccc2c(c1)OC1(O)c3cccc(N)c3C(=O)C21NC(=O)c1cn2cccnc2n1 (stereo not shown) [Example 285, N-(1-Amino-4b-hydroxy-7-isopropyl-10-oxo-9b,10-dihydro-4bH-indeno[1,2-b]benzofuran-9b-yl)imidazo[1,2-a]pyrimidine-2-carboxamide]	< 0.01 µg/mL	> 10 µg/mL	
CC(C)c1ccc2c(c1)OC1(O)c3cccc(N)c3C(=O)C21NC(=O)[C@@H]1CSC(=O)N1 (stereo partly drawn) [Example 207, (4R)—N-(1-amino-4b-hydroxy-7-isopropyl-10-oxo-9b,10-dihydro-4bH-indeno[1,2-b]benzofuran-9b-yl)-2-oxothiazolidine-4-carboxamide]	< 0.01 µg/mL	> 10 µg/mL	
CC(C)c1ccc2c(c1)OC1(O)c3cccc(N)c3C(=O)C21NC(=O)Cn1cnnn1 (stereo not shown) [Example 213, N-(1-Amino-4b-hydroxy-7-isopropyl-10-oxo-9b,10-dihydro-4bH-benzo[d]indeno[1,2-b]furan-9b-yl)-2-(1H-tetrazol-1-yl)acetamide]	< 0.01 µg/mL	> 10 µg/mL	
CC(C)c1ccc2c(c1)OC1(O)c3cccc(N)c3C(=O)C21NC(=O)c1cc2ccccc2s1 (stereo not shown) [Example 235, N-(1-Amino-4b-hydroxy-7-isopropyl-10-oxo-9b,10-dihydro-4bH-benzo[d]indeno[1,2-b]furan-9b-yl)benzo[b]thiophene-2-carboxamide]	< 0.01 µg/mL	8.88 µg/mL (≈ 18.9 µM)	7.97 µg/mL (≈ 16.9 µM)
CC(C)c1ccc2c(c1)OC1(O)c3cccc(N)c3C(=O)C21NC(=O)c1nccn1C (stereo not shown) [Example 252, N-(1-Amino-4b-hydroxy-7-isopropyl-10-oxo-9b,10-dihydro-4bH-indeno[1,2-b]benzofuran-9b-yl)-1-methyl-1H-imidazole-2-carboxamide]	< 0.01 µg/mL	3.53 µg/mL (≈ 8.44 µM)	3.64 µg/mL (≈ 8.7 µM)
CC(C)c1ccc2c(c1)OC1(O)c3cccc(N)c3C(=O)C21NC(=O)Cc1ccccc1 (stereo not shown) [Example 179, N-(1-Amino-4b-hydroxy-7-isopropyl-10-oxo-9b,10-dihydro-4bH-indeno[1,2-b]benzofuran-9b-yl)-2-phenylacetamide]	< 0.01 µg/mL	> 10 µg/mL	
CC(C)c1ccc2c(c1)OC1(O)c3cccc(N)c3C(=O)C21NC(=O)c1ccc2nccn2c1 (stereo not shown) [Example 272, N-(1-Amino-4b-hydroxy-7-isopropyl-10-oxo-9b,10-dihydro-4bH-indeno[1,2-b]benzofuran-9b-yl)imidazo[1,2-a]pyridine-6-carboxamide]	< 0.01 µg/mL	> 10 µg/mL	
CC(C)c1ccc2c(c1)OC1(O)c3cccc(N)c3C(=O)C21NC=O (stereo not shown) [Example 166, N-(1-Amino-4b-hydroxy-7-isopropyl-10-oxo-9b,10-dihydro-4bH-indeno[1,2-b]benzofuran-9b-yl)formamide]	< 0.01 µg/mL	> 10 µg/mL	
CC(C)c1ccc2c(c1)OC1(O)c3cccc(N)c3C(=O)C21NC(=O)c1ncccc1Cl (stereo not shown) [Example 246, N-(1-Amino-4b-hydroxy-7-isopropyl-10-oxo-9b,10-dihydro-4bH-benzo[d]indeno[1,2-b]furan-9b-yl)-3-chloropicolinamide]	< 0.01 µg/mL	> 10 µg/mL	9.84 µg/mL (≈ 21.9 µM)
CC(C)c1ccc2c(c1)OC1(O)c3cccc(N)c3C(=O)C21NC(=O)c1ncccc1O (stereo not shown) [Example 257, N-(1-Amino-4b-hydroxy-7-isopropyl-10-oxo-9b,10-dihydro-4bH-indeno[1,2-b]benzofuran-9b-yl)-3-hydroxypicolinamide]	0.031 µg/mL (≈ 0.0719 µM)	> 10 µg/mL	
CC(C)c1ccc2c(c1)OC1(O)c3ccccc3C(=O)C21NC(=O)c1cccs1 (stereo not shown) [Example 161, N-(4b-Hydroxy-7-isopropyl-10-oxo-9b,10-dihydro-4bH-indeno[1,2-b]benzofuran-9b-yl)thiophene-2-carboxamide]	< 0.01 µg/mL	17.9 µg/mL (≈ 44.1 µM)	40.7 µg/mL (≈ 100 µM)
Cc1ccncc1C(=O)NC12C(=O)c3c(N)cccc3C1(O)Oc1cc(C(C)C)ccc12 (stereo not shown) [Example 258, N-(1-Amino-4b-hydroxy-7-isopropyl-10-oxo-9b,10-dihydro-4bH-indeno[1,2-b]benzofuran-9b-yl)-4-methylnicotinamide]	0.04 µg/mL (≈ 0.0931 µM)	> 10 µg/mL	
CC(C)c1ccc2c(c1)OC1(O)c3cccc(N)c3C(=O)C21NC(=O)c1cccn2nnnc12 (stereo not shown) [Example 279, N-(1-Amino-4b-hydroxy-7-isopropyl-10-oxo-9b,10-dihydro-4bH-indeno[1,2-b]benzofuran-9b-yl)tetrazolo[1,5-a]pyridine-8-carboxamide]	0.035 µg/mL (≈ 0.0767 µM)	4.94 µg/mL (≈ 10.8 µM)	7.88 µg/mL (≈ 17.3 µM)
CC(C)c1ccc2c(c1)OC1(O)c3cccc(N)c3C(=O)C21NC(=O)c1cc2ncccn2n1 (stereo not shown) [Example 273, N-(1-Amino-4b-hydroxy-7-isopropyl-10-oxo-9b,10-dihydro-4bH-indeno[1,2-b]benzofuran-9b-yl)pyrazolo[1,5-a]pyrimidine-2-carboxamide]	< 0.01 µg/mL	> 10 µg/mL	
CC(C)c1ccc2c(c1)OC1(O)c3cccc(N)c3C(=O)C21NC(=O)/C=C/c1ccc(Cl)c(Cl)c1 (stereo not shown) [Example 180]	0.033 µg/mL (≈ 0.0648 µM)	> 10 µg/mL	4.32 µg/mL (≈ 8.48 µM)
CC(C)c1ccc2c(c1)OC1(O)c3cccc(N)c3C(=O)C21NC(=O)c1ccc[nH]1 (stereo not shown) [Example 233, N-(1-Amino-4b-hydroxy-7-isopropyl-10-oxo-9b,10-dihydro-4bH-indeno[1,2-b]benzofuran-9b-yl)-1H-pyrrole-2-carboxamide]	< 0.01 µg/mL	> 10 µg/mL	31.9 µg/mL (≈ 79 µM)
CC(C)c1ccc2c(c1)OC1(O)c3cccc(N)c3C(=O)C21NC(=O)c1cc2ccccc2n1C (stereo not shown) [Example 268, N-(1-Amino-4b-hydroxy-7-isopropyl-10-oxo-9b,10-dihydro-4bH-indeno[1,2-b]benzofuran-9b-yl)-1-methyl-1H-indole-2-carboxamide]	0.036 µg/mL (≈ 0.077 µM)	> 10 µg/mL	9.28 µg/mL (≈ 19.8 µM)
CC(C)c1ccc2c(c1)OC1(O)c3cccc(N)c3C(=O)C21NC(=O)C1CCCO1 (stereo not shown) [Example 174, N-(1-Amino-4b-hydroxy-7-isopropyl-10-oxo-9b,10-dihydro-4bH-benzo[d]indeno[1,2-b]furan-9b-yl)tetrahydrofurane-2-carboxamide]	0.019 µg/mL (≈ 0.0465 µM)	> 10 µg/mL	
COC(=O)c1ccc(C(=O)NC23C(=O)c4c(N)cccc4C2(O)Oc2cc(C(C)C)ccc23)cc1 (stereo not shown) [Example 189, Methyl-4-(1-amino-4b-hydroxy-7-isopropyl-10-oxo-9b,10-dihydro-4bH-benzo[d]indeno[1,2-b]furan-9b-ylcarbamoyl)benzoate]	< 0.01 µg/mL	> 10 µg/mL	8.56 µg/mL (≈ 18.1 µM)
COc1ccccc1C(=O)NC12C(=O)c3c(N)cccc3C1(O)Oc1cc(C(C)C)ccc12 (stereo not shown) [Example 183, N-(1-Amino-4b-hydroxy-7-isopropyl-10-oxo-9b,10-dihydro-4bH-indeno[1,2-b]benzofuran-9b-yl)-2-methoxybenzamide]	0.014 µg/mL (≈ 0.0315 µM)	> 10 µg/mL	8.54 µg/mL (≈ 19.2 µM)
